Data taken from PubChem BioAssay AID1259407 (Chemical Carcinogenesis Research Information System (CCRIS), 2018).
Active and inactive are the calls of the source. The rule behind the calls is not given here.

Test system: CCRIS mutagenicity, Ames/micronucleus/aberration tests
Assay: CCRIS mutagenicity studies
[1] = Test System: AMES SALMONELLA TYPHIMURIUM, Strain/Indicator: TA98, Metabolic Activation: NONE, Method: STANDARD PLATE
[2] = Test System: AMES SALMONELLA TYPHIMURIUM, Strain/Indicator: TA98, Metabolic Activation: RAT, LIVER, S-9, AROCLOR 1254, Method: STANDARD PLATE
[3] = Test System: AMES SALMONELLA TYPHIMURIUM, Strain/Indicator: TA100, Metabolic Activation: NONE, Method: STANDARD PLATE
[4] = Test System: AMES SALMONELLA TYPHIMURIUM, Strain/Indicator: TA100, Metabolic Activation: RAT, LIVER, S-9, AROCLOR 1254, Method: STANDARD PLATE
[5] = Test System: AMES SALMONELLA TYPHIMURIUM, Strain/Indicator: TA98, Metabolic Activation: NONE, Method: PREINCUBATION
[6] = Test System: AMES SALMONELLA TYPHIMURIUM, Strain/Indicator: TA98, Metabolic Activation: RAT, LIVER, S-9, AROCLOR 1254, Method: PREINCUBATION
[7] = Test System: AMES SALMONELLA TYPHIMURIUM, Strain/Indicator: TA100, Metabolic Activation: NONE, Method: PREINCUBATION
[8] = Test System: AMES SALMONELLA TYPHIMURIUM, Strain/Indicator: TA100, Metabolic Activation: RAT, LIVER, S-9, AROCLOR 1254, Method: PREINCUBATION

COc1c(Cl)cc2c(c1OC)N(C)[C@@H]1N3C(=O)[C@@]4(C)SS[C@@]3(C(=O)N4C)[C@H](O)[C@]21O
mutagenic call [1]: inactive; negative | mutagenic call [2]: inactive; negative | mutagenic call [3]: inactive; negative | mutagenic call [4]: inactive; negative | mutagenic call (Test System: AMES SALMONELLA TYPHIMURIUM, Strain/Indicator: TA102, Metabolic Activation: NONE, Method: STANDARD PLATE): inactive; negative | mutagenic call (Test System: AMES SALMONELLA TYPHIMURIUM, Strain/Indicator: TA102, Metabolic Activation: RAT, LIVER, S-9, AROCLOR 1254, Method: STANDARD PLATE): inactive; negative | mutagenic call (Test System: AMES SALMONELLA TYPHIMURIUM, Strain/Indicator: TA1537, Metabolic Activation: NONE, Method: STANDARD PLATE): inactive; negative | mutagenic call (Test System: AMES SALMONELLA TYPHIMURIUM, Strain/Indicator: TA1537, Metabolic Activation: RAT, LIVER, S-9, AROCLOR 1254, Method: STANDARD PLATE): inactive; negative

O=NN1C(C(=O)O)CSC1C(O)C(O)C(O)C(O)CO (stereo unspecified)
mutagenic call [5]: inactive; negative | mutagenic call [1]: inactive; negative | mutagenic call [6]: inactive; negative | mutagenic call [2]: inactive; negative | mutagenic call [7]: inactive; negative | mutagenic call [3]: inactive; negative | mutagenic call [8]: inactive; negative | mutagenic call [4]: inactive; negative

O[C@@H]1[C@H]2O[C@H]2c2c(cc3ccc4cccc5c6ccccc6c2c3c45)[C@H]1O
mutagenic call (Test System: AMES SALMONELLA TYPHIMURIUM, Strain/Indicator: TA97, Metabolic Activation: NONE, Method: PREINCUBATION (EXPOSURE IN MEDIUM WITH KCL)): active; positive | mutagenic call (Test System: AMES SALMONELLA TYPHIMURIUM, Strain/Indicator: TA97, Metabolic Activation: NONE, Method: PREINCUBATION (EXPOSURE IN MEDIUM WITHOUT KCL)): active; positive | mutagenic call (Test System: AMES SALMONELLA TYPHIMURIUM, Strain/Indicator: TA98, Metabolic Activation: NONE, Method: PREINCUBATION (EXPOSURE IN MEDIUM WITH KCL)): active; positive | mutagenic call (Test System: AMES SALMONELLA TYPHIMURIUM, Strain/Indicator: TA98, Metabolic Activation: NONE, Method: PREINCUBATION (EXPOSURE IN MEDIUM WITHOUT KCL)): active; positive | mutagenic call (Test System: AMES SALMONELLA TYPHIMURIUM, Strain/Indicator: TA100, Metabolic Activation: NONE, Method: PREINCUBATION (EXPOSURE IN MEDIUM WITH KCL)): active; positive | mutagenic call (Test System: AMES SALMONELLA TYPHIMURIUM, Strain/Indicator: TA100, Metabolic Activation: NONE, Method: PREINCUBATION (EXPOSURE IN MEDIUM WITHOUT KCL)): active; positive | mutagenic call (Test System: AMES SALMONELLA TYPHIMURIUM, Strain/Indicator: TA104, Metabolic Activation: NONE, Method: PREINCUBATION (EXPOSURE IN MEDIUM WITH KCL)): active; positive | mutagenic call (Test System: AMES SALMONELLA TYPHIMURIUM, Strain/Indicator: TA104, Metabolic Activation: NONE, Method: PREINCUBATION (EXPOSURE IN MEDIUM WITHOUT KCL)): active; positive | mutagenic call (Test System: CHINESE HAMSTER V-79, Strain/Indicator: V-79/6-THIOGUANINE, Metabolic Activation: NONE): active; positive

CC(=O)N(O)c1ccc(Cl)cc1
mutagenic call [1]: inactive; negative | mutagenic call [2]: inactive; negative | mutagenic call [3]: inactive; negative | mutagenic call [4]: inactive; negative

CCCCCCCC(O)C=CC=O (stereo unspecified)
mutagenic call (End Point: IN VITRO CHROMOSOMAL ABERRATIONS, Test System: RAT HEPATOCYTES, Metabolic Activation: NONE): active; positive | mutagenic call (End Point: IN VITRO MICRONUCLEUS, Test System: RAT HEPATOCYTES, Metabolic Activation: NONE): inactive; negative

C=C1C[C@@]23CC[C@H]4[C@@](C)(CCC[C@@]4(C)C(=O)O)[C@@H]2CC[C@]1(O)C3
mutagenic call (Test System: AMES SALMONELLA TYPHIMURIUM, Strain/Indicator: TA97, Metabolic Activation: NONE, Method: PREINCUBATION): inactive; negative | mutagenic call (Test System: AMES SALMONELLA TYPHIMURIUM, Strain/Indicator: TA97, Metabolic Activation: RAT, LIVER, S-9, PCB, Method: PREINCUBATION): inactive; negative | mutagenic call [5]: inactive; negative | mutagenic call (Test System: AMES SALMONELLA TYPHIMURIUM, Strain/Indicator: TA98, Metabolic Activation: RAT, LIVER, S-9, PCB, Method: PREINCUBATION): inactive; negative | mutagenic call (Test System: AMES SALMONELLA TYPHIMURIUM, Strain/Indicator: TA98, Metabolic Activation: RAT, LIVER, S-9, SODIUM PHENOBARBITAL AND 5,6-BENZOFLAVONE, Method: PREINCUBATION): inactive; negative | mutagenic call [7]: inactive; negative | mutagenic call (Test System: AMES SALMONELLA TYPHIMURIUM, Strain/Indicator: TA100, Metabolic Activation: RAT, LIVER, S-9, PCB, Method: PREINCUBATION): inactive; negative | mutagenic call (Test System: AMES SALMONELLA TYPHIMURIUM, Strain/Indicator: TA100, Metabolic Activation: RAT, LIVER, S-9, SODIUM PHENOBARBITAL AND 5,6-BENZOFLAVONE, Method: PREINCUBATION): inactive; negative | mutagenic call (Test System: AMES SALMONELLA TYPHIMURIUM, Strain/Indicator: TA102, Metabolic Activation: NONE, Method: PREINCUBATION): inactive; negative | mutagenic call (Test System: AMES SALMONELLA TYPHIMURIUM, Strain/Indicator: TA102, Metabolic Activation: RAT, LIVER, S-9, PCB, Method: PREINCUBATION): inactive; negative | mutagenic call (Test System: AMES SALMONELLA TYPHIMURIUM, Strain/Indicator: TA104, Metabolic Activation: NONE, Method: PREINCUBATION): inactive; negative | mutagenic call (Test System: AMES SALMONELLA TYPHIMURIUM, Strain/Indicator: TA104, Metabolic Activation: RAT, LIVER, S-9, PCB, Method: PREINCUBATION): inactive; negative | mutagenic call (Test System: AMES SALMONELLA TYPHIMURIUM, Strain/Indicator: TM677, Metabolic Activation: NONE, Method: PREINCUBATION): inactive; negative | mutagenic call (Test System: AMES SALMONELLA TYPHIMURIUM, Strain/Indicator: TM677, Metabolic Activation: RAT, LIVER, MICROSOMES, AROCLOR 1254, Method: SUSPENSION/PLATE): active; positive | mutagenic call (Test System: AMES SALMONELLA TYPHIMURIUM, Strain/Indicator: TM677, Metabolic Activation: RAT, LIVER, S-9, AROCLOR 1254, Method: PREINCUBATION): active; positive | mutagenic call (Test System: AMES SALMONELLA TYPHIMURIUM, Strain/Indicator: TM677, Metabolic Activation: RAT, LIVER, S-9, AROCLOR 1254, Method: SUSPENSION/PLATE): active; positive

CCN(CC)c1ccc2c(C(F)(F)F)cc(=O)oc2c1
mutagenic call (Test System: AMES SALMONELLA TYPHIMURIUM, Strain/Indicator: TA1538, Metabolic Activation: NONE, Method: STANDARD PLATE): inactive; negative | mutagenic call (Test System: AMES SALMONELLA TYPHIMURIUM, Strain/Indicator: TA1538, Metabolic Activation: RAT, LIVER, S-9, AROCLOR 1254, Method: STANDARD PLATE): inactive; negative

Cc1cccc(OP(=O)(Oc2cccc(C)c2)Oc2cccc(C)c2)c1
mutagenic call (Test System: AMES SALMONELLA TYPHIMURIUM, Strain/Indicator: TA98, Metabolic Activation: HAMSTER, LIVER, S-9, AROCLOR 1254, Method: PREINCUBATION): inactive; negative | mutagenic call [5]: inactive; negative | mutagenic call [6]: inactive; negative | mutagenic call (Test System: AMES SALMONELLA TYPHIMURIUM, Strain/Indicator: TA100, Metabolic Activation: HAMSTER, LIVER, S-9, AROCLOR 1254, Method: PREINCUBATION): inactive; negative | mutagenic call [7]: inactive; negative | mutagenic call [8]: inactive; negative | mutagenic call (Test System: AMES SALMONELLA TYPHIMURIUM, Strain/Indicator: TA1535, Metabolic Activation: HAMSTER, LIVER, S-9, AROCLOR 1254, Method: PREINCUBATION): inactive; negative | mutagenic call (Test System: AMES SALMONELLA TYPHIMURIUM, Strain/Indicator: TA1535, Metabolic Activation: NONE, Method: PREINCUBATION): inactive; negative | mutagenic call (Test System: AMES SALMONELLA TYPHIMURIUM, Strain/Indicator: TA1535, Metabolic Activation: RAT, LIVER, S-9, AROCLOR 1254, Method: PREINCUBATION): inactive; negative | mutagenic call (Test System: AMES SALMONELLA TYPHIMURIUM, Strain/Indicator: TA1537, Metabolic Activation: HAMSTER, LIVER, S-9, AROCLOR 1254, Method: PREINCUBATION): inactive; negative | mutagenic call (Test System: AMES SALMONELLA TYPHIMURIUM, Strain/Indicator: TA1537, Metabolic Activation: NONE, Method: PREINCUBATION): inactive; negative | mutagenic call (Test System: AMES SALMONELLA TYPHIMURIUM, Strain/Indicator: TA1537, Metabolic Activation: RAT, LIVER, S-9, AROCLOR 1254, Method: PREINCUBATION): inactive; negative
